Reference: patent US20240101561A1, “NOVEL TETRAZOLES” (Boehringer Ingelheim International GmbH, priority 2019, published 2024)
pIC50: −log10 of the molar value.

Key:
[1] = Assay C: Hepatocyte clearance; type: in vitro ADME, human; conditions: cryopreserved hepatocyte suspension, incubated six hours
Description: Assay C: Hepatocyte Clearance
The metabolic degradation of the test compound is assayed in a hepatocyte suspension. Hepatocytes (cryopreserved) are incubated in. Dulbecco's modified eagle medium (supplemented with 3.5 μg glucagon/500 mL, 2.5 mg insulin/500 mL and 3.75 mg/500 mL hydrocortison) containing 5% or 50% species serum.
Following a 30 min preincubation in an incubator (37° C., 10% CO2) 5 μl of test compound solution (80 μM; from 2 mM in DMSO stock solution diluted 1:25 with medium) are added into 395 μl hepatocyte suspension (cell density in the range 0.25-5 Mio cells/mL depending on the species, typically 1 Mio cells/mL; final concentration of test compound final DMSO concentration 0.05%).
The cells are incubated for six hours (incubator, orbital shaker) and samples (25 μl) are taken at 0, 0.5, 1, 2, 4 and 6 hours. Samples are transferred into acetonitrile and pelleted by centrifugation (5 min). The supernatant is transferred to a new 96-deepwell plate, evaporated under nitrogen and resuspended.
Decline of Parent Compound is Analyzed by HPLC-MS/MS
CLint is calculated as follows CL_[…]=Dose/AUC=(C0/CD)/(AUD+clast/k)×1000/60. C0: initial concentration in the incubation [μM], CD: cell density of vital cells [10e6cells/mL], AUD: area under the data [μM×h], clast: concentration of last data point [μM], k: slope of the regression line for parent decline [h−1].
The calculated in vitro hepatic intrinsic clearance can be scaled up to the intrinsic in vivo hepatic Clearance and used to predict hepatic in vivo blood clearance (CL) by the use of a liver model (well stirred model).
CL_[…]_INVIVO [ml/min/kg]=(CL_[…] [μL/min/10e6cells]×hepatocellularity[10e6cells/g liver]×liver factor [g/kg bodyweight])/1000
CL [ml/min/kg]=CL_[…]_INVIVO [ml/min/kg]×hepatic blood flow [ml/min/kg]/(CL_[…]_INVIVO [ml/min/kg]+hepatic blood flow [ml/min/kg])

[2] = Assay B: Microsomal clearance; type: in vitro ADME, human; conditions: pooled liver microsomes, 1 μM test compound, 37° C., NADPH
Description: Assay B: Microsomal Clearance:
The metabolic degradation of the test compound is assayed at 37° C. with pooled liver microsomes. The final incubation volume of 100 μl per time point contains TRIS buffer pH 7.6 at RT (0.1 M), magnesium chloride (5 mM), microsomal protein (1 mg/ml) and the test compound at a final concentration of 1 μM.
Following a short preincubation period at 37° C., the reactions are initiated by addition of beta-nicotinamide adenine dinucleotide phosphate, reduced form (NADPH, 1 mM) and terminated by transferring an aliquot into solvent after different time points (0, 5, 15, 30, 60 min). Additionally, the NADPH-independent degradation is monitored in incubations without NADPH, terminated at the last time point. The [%] remaining test compound after NADPH independent incubation is reflected by the parameter c(control) (metabolic stability). The quenched incubations are pelleted by centrifugation (10000 g, 5 min).
An aliquot of the supernatant is assayed by LC-MS/MS for the amount of parent compound. The half-life (t½ INVITRO) is determined by the slope of the semilogarithmic plot of the concentration-time profile.
The intrinsic clearance (CL_[…]) is calculated by considering the amount of protein in the incubation:
CL_[…] [μl/min/mg protein]=(Ln 2/(half-life [min]*protein content [mg/ml]))*1000
CL_[…]_INVIVO [ml/min/kg]=(CL_[…] [μL/min/mg protein]×MPPGL [mg protein/g liver]×liver factor [g/kg bodyweight])/1000

human TRPA1 ion channel = human TRPA1 ion channel (Homo sapiens (Human), UniProt O75762); assay: Assay A: TRPA1 cell assay (FLIPR, AITC-induced intracellular calcium); type: cell-based; conditions: HEK293 cells over-expressing human TRPA1; AITC 10 μM agonist; FLIPRtetra; read-out: hTRPA1 IC50
Description: A human HEK293 cell line over-expressing the human TRPA1 ion channel (Perkin Elmer, Product No. AX-004-PCL) was used as a test system for compound efficacy and potency.
Compound activity was determined by measuring the effect of compounds on intracellular calcium concentration induced by AITC (Allylisothiocyanat) agonism in a FLIPRtetra system (Molecular Devices).
The cells were obtained as frozen cells in cryo-vials and stored until use at −150° C. Cells were grown in culture medium (MEM/EBSS medium with 10% FCS and 0.4 mg/ML Geneticin). […] For sub-culturing cells were detached from flasks by Versene. At the day before the assay, cells were detached, washed twice with medium (MEM/EBSS medium with 10% FCS) and 20000 cells in 20 μl/well were seeded to Poly D-Lysin biocoated 384-well plates (black, clear bottom, Cat.356697) from Corning. Plates were incubated for 24 hours at 37° C./5% CO2 before use in the assay.
The test compounds were dissolved in 100% DMSO at a concentration of 10 mM and in a first step diluted in DMSO to a concentration of 5 mM, followed by serial dilution steps in 100% DMSO. Dilution factor and number of dilution steps may vary according to needs. Typically 8 different concentrations by 1:5 dilutions were prepared, further intermediate dilutions (1:20) of the substances were carried out with HBSS/HEPES buffer (1×HEPES,Cat.14065 from Gibco, 20 mM HEPES, Cat. 83264 from SIGMA, 0.1% BSA Cat.11926 from Invitrogen, pH 7,4
At the assay day cells were washed 3× with assay puffer, 20 μL buffer remained in the wells after washing. 10 μL Ca6 kit (Cat.R8191 MolecularDevices) loading buffer in HBSS/HEPES was added to the cells and the plates were incubated with lid for 120 minutes at 37°/5% CO2. 10 μL of compound or controls in HBSS/HEPES buffer/5% DMSO from the intermediate dilution plate were carefully added to the wells. […] Finally 10 μL of the agonist AITC 50 μM dissolved in HBSS/HEPES buffer/0,05% DMSO (final concentration 10 μM) was added to the wells followed by an additional read on the FLIPRtetra device for 10 minutes. The area under the signal curve (AUC) after AITC addition was used for IC50/% inhibition calculations
Data Evaluation and Calculation:
Each assay microtiter plate contained wells with vehicle (1% DMSO) controls instead of compound as controls for AITC induced luminescence (100% CTL; high controls) and wells with vehicle controls without AITC as controls for non-specific changes in luminescence (0% CTL; low controls).
The analysis of the data was performed by the calculation of the area under signal curve of the individual wells. Based on this values the % value for the measurement of each substance concentration was calculated (AUC(sample)−AUC(low))*100/(AUC(high)−AUC(low)) using MegaLab software (in house development). The IC50 values were calculated from the % control values using MegaLab software. Calculation: [y=(a−d)/(1+(x/c){circle around ( )}b)+d], a=low value, d=high value; x=conc M; c=IC50 M; b=hill; y=ctrl

[3] = Assay D: Metabolism in human hepatocytes in vitro; type: in vitro ADME; conditions: primary human hepatocytes, 10 μM test compound, up to six hours
Description: Assay D: Metabolism in Human Hepatocytes In Vitro
The metabolic pathway of a test compound is investigated using primary human hepatocytes in suspension.
Following a 30 min preincubation in a cell culture incubator (37° C., 10% CO2), test compound solution is spiked into the hepatocyte suspension to obtain a final cell density of 1.0*10^6 to 4.0*10^6 cells/ml (depending on the metabolic turnover rate of the compound observed with primary human hepatocytes), a final test compound concentration of 10 μM, and a final DMSO concentration of 0.05%.
The cells are incubated for six hours in a cell culture incubator on a horizontal shaker, and samples are removed from the incubation after 0, 0.5, 1, 2, 4 or 6 hours, depending on the metabolic turnover rate. Samples are quenched with acetonitrile and pelleted by centrifugation. The supernatant is transferred to a 96-deepwell plate, evaporated under nitrogen and resuspended prior to bioanalysis by liquid chromatography-high resolution mass spectrometry for identification of putative metabolites.

human TRPA1 ion channel, sequence (O75762 whole entry): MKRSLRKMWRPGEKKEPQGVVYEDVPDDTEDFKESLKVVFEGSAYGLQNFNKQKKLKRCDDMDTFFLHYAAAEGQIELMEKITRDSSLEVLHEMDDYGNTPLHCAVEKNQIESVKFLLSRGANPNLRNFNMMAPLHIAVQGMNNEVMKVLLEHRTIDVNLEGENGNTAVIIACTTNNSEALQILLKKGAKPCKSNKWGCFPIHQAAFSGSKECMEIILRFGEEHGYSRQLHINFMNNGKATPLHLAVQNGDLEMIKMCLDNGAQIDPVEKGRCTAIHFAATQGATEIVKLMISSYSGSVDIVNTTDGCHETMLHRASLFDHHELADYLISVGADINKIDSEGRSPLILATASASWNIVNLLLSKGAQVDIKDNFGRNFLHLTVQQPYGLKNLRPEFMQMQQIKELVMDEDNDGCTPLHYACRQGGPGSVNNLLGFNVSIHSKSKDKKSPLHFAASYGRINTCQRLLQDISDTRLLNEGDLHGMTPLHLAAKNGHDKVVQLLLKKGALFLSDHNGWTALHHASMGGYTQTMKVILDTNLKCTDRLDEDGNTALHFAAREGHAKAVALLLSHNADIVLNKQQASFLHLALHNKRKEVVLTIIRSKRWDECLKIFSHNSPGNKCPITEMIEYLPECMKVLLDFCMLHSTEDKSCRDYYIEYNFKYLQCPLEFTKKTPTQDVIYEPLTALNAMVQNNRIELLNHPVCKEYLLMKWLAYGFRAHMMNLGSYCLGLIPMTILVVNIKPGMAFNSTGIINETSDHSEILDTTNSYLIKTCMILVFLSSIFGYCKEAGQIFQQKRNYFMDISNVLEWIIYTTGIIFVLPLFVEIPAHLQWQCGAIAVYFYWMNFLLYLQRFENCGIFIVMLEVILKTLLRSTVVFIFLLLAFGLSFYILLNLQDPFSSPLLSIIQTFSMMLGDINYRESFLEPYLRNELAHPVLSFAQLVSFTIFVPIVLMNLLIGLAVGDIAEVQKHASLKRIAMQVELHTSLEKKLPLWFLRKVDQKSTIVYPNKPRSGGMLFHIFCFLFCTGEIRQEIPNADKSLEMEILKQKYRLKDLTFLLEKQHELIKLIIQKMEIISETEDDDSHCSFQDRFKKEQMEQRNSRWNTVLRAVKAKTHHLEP

SMILES | human Hepatocytes [% Qh] [1] | human LM [% Qh] [2] | pIC50 (human TRPA1 ion channel) | Major metabolite observed: mechanism (Metabolite M1) [3]
O=c1c2scnc2ncn1Cc1nnn(C[C@H](O)c2ccc(Cl)cc2)n1 [Example 4] | – | <23 % Qh | 6.71 | –
Cc1ccn2ncn(Cc3nnn(C[C@H](O)c4ccc(Cl)cc4)n3)c(=O)c12 [Example 3] | – | >89 % Qh | 7.12 | –
Cn1cnc2nc(N)n(Cc3nnn(C[C@H](O)c4ccc(Cl)cc4)n3)c(=O)c21 [Example 2] | – | – | 6.54 | –
Cn1cnc2cnn(Cc3nnn(C[C@H](O)c4ccc(Cl)cc4)n3)c(=O)c21 [Example 7] | – | <23 % Qh | 6.56 | –

Stronger by pIC50 (human TRPA1 ion channel), values ahead:

human Hepatocytes [% Qh] [1] | human LM [% Qh] [2] | pIC50 (human TRPA1 ion channel) | Major metabolite observed: mechanism (Metabolite M1) [3] | SMILES
<4 % Qh | <23 % Qh | 7.14 | – | Cn1cnc2ncn(Cc3nnn(C[C@H](O)c4ccc(Cl)cc4)n3)c(=O)c21 [Example 9, 1-({2-[(2R)-2-(4-chlorophenyl)-2-hydroxyethyl]-2H-1,2,3,4-tetrazol-5-yl}methyl)-7-methyl-6,7-dihydro-1H-purin-6-one]
<4 % Qh | <23 % Qh | 7.46 | – | Cn1nnc2ncn(Cc3nnn(C[C@H](O)c4ccc(Cl)cc4)n3)c(=O)c21 [Example 1]
31 % Qh | <23 % Qh | 7.57 | N-Demethylation | Cc1nn(C)c2ncn(Cc3nnn(C[C@H](O)c4ccc(Cl)cc4)n3)c(=O)c12 [Example 5]
22 % Qh | <23 % Qh | 7.57 | – | Cc1ncn2ncn(Cc3nnn(C[C@H](O)c4ccc(Cl)cc4)n3)c(=O)c12 [Example 8]
